Assay results from patent US6136830A, “Sulphonyloxadiazolones and their use as microbicides” (Bayer Aktiengesellschaft, priority 1997, dated 2000).

Legend:
[1] = system: Phytophthora infestans; assay: whole plant or invertebrate; assay type: in vivo, Phytophthora infestans (on tomato plants); conditions: in Solanum lycopersicum, 72 h, read-out: Efficacy in %
[2] = log P by HPLC (EEC-Directive 79/831 Annex V. A8); assay type: physicochemical; conditions: gradient method, acetonitrile/0.1% aqueous phosphoric acid
Description: The log P values were determined according to EEC-Directive 79/831 Annex V. A8 by HPLC (gradient method, acetonitrile/0.1% aqueous phosphoric acid).

## Cc1noc(C)c1S(=O)(=O)n1c(N(C)C2CCCCC2)noc1=O
[1]
  pest or weed control at 50 g/ha: 85%

## Cc1ccc(C)c(Oc2noc(=O)n2S(=O)(=O)c2c(C)noc2C)c1
[1]
  pest or weed control at 50 g/ha: 94%

## Cc1ccc(C)c(Oc2noc(=O)n2S(=O)(=O)c2c(N)noc2C)c1
[1]
  pest or weed control at 50 g/ha: 96%

## Cc1ccc(Oc2noc(=O)n2S(=O)(=O)c2c(C)noc2C)cc1C
[1]
  pest or weed control at 50 g/ha: 95%

## Cc1ccc(Oc2noc(=O)n2S(=O)(=O)c2c(N)noc2C)cc1C
[1]
  pest or weed control at 50 g/ha: 95%

## Cc1cc(C)cc(Oc2noc(=O)n2S(=O)(=O)c2c(C)noc2C)c1
[1]
  pest or weed control at 50 g/ha: 96%

## Cc1cc(C)cc(Oc2noc(=O)n2S(=O)(=O)c2c(N)noc2C)c1
[1]
  pest or weed control at 50 g/ha: 95%

## COc1ccc(Oc2noc(=O)n2S(=O)(=O)c2c(N)noc2C)cc1
[1]
  pest or weed control at 50 g/ha: 91%

## COC(=O)c1ccc(Oc2noc(=O)n2S(=O)(=O)c2c(C)noc2C)cc1 [Example 2]
[2]
  chromatographic logP: 3.07

## Cc1cccc(C)c1Oc1noc(=O)n1S(=O)(=O)c1c(C)noc1C [Example 3]
[2]
  chromatographic logP: 3.54

## Cc1ccc(C(C)C)c(Oc2noc(=O)n2S(=O)(=O)c2c(C)noc2C)c1 [Example 4]
[2]
  chromatographic logP: 4.19

## Cc1ccc(Oc2noc(=O)n2S(=O)(=O)c2c(C)noc2C)c(C)c1 [Example 5]
[2]
  chromatographic logP: 3.63

## Cc1ccccc1Oc1noc(=O)n1S(=O)(=O)c1c(C)noc1C [Example 7]
[2]
  chromatographic logP: 3.28

## Cc1noc(C)c1S(=O)(=O)n1c(Oc2ccc(Cl)cc2)noc1=O [Example 8]
[2]
  chromatographic logP: 3.45

## COC(=O)c1ccc(Oc2noc(=O)n2S(=O)(=O)c2c(C)noc2C)cc1 [drawing 39]
[1]
  pest or weed control at 50 g/ha: 86%

## Cc1ccc(Oc2noc(=O)n2S(=O)(=O)c2c(C)noc2C)c(C)c1 [drawing 40]
[1]
  pest or weed control at 50 g/ha: 94%

## Cc1cccc(C)c1Oc1noc(=O)n1S(=O)(=O)c1c(C)noc1C [drawing 41]
[1]
  pest or weed control at 50 g/ha: 88%

## Cc1ccc(C(C)C)c(Oc2noc(=O)n2S(=O)(=O)c2c(C)noc2C)c1 [drawing 42]
[1]
  pest or weed control at 50 g/ha: 95%

## Cc1ccccc1Oc1noc(=O)n1S(=O)(=O)c1c(C)noc1C [drawing 43]
[1]
  pest or weed control at 50 g/ha: 94%

## Cc1noc(C)c1S(=O)(=O)n1c(Oc2ccc(Cl)cc2)noc1=O [drawing 44]
[1]
  pest or weed control at 50 g/ha: 97%
